We go through 6 compounds from ChEMBL document CHEMBL4428052, “Substrate-Guided Design of Selective FXIIa Inhibitors Based on the Plant-Derived Momordica cochinchinensis Trypsin Inhibitor-II (MCoTI-II) Scaffold” (J Med Chem, 2016).

The target in one assay is T1, Coagulation factor XII (Homo sapiens, UniProt P00748).
T1 sequence (P00748 whole entry): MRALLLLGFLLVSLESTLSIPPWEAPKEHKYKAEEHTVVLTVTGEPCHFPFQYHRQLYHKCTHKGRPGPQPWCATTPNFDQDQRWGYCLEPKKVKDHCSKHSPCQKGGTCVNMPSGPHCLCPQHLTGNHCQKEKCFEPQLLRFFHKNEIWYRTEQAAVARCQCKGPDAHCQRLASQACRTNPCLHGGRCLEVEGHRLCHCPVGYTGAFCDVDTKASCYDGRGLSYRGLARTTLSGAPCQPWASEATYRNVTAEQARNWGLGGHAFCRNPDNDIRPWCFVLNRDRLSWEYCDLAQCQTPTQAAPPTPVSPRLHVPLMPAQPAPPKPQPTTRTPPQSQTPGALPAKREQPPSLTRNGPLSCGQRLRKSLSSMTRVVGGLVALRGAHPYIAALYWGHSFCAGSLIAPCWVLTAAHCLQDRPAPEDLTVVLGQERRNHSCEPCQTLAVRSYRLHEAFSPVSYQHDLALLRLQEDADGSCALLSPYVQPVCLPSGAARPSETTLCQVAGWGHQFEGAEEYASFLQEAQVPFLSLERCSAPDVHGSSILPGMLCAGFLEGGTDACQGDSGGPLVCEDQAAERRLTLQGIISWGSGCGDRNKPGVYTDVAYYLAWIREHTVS
Nature of the assay: Inhibition of factor 12a (unknown origin) using Ac-QRFRpNA as substrate incubated for 30 mins measured for 7 mins by morrison plot analysis.

Another assay concerns the target Plasma kallikrein (Homo sapiens, UniProt P03952). Nature of the assay: Inhibition of human plasma kallikrein using Ac-RM(O2)YRpNA as substrate incubated for 30 mins measured for 7 mins by morrison plot analysis.
For a further assay, the target named is Trypsin (Homo sapiens, UniProt P07477+P07478+P35030). The assay can be described thus: Inhibition of trypsin (unknown origin) using Bz-FVRpNA as substrate incubated for 30 mins measured for 7 mins by morrison plot analysis. Format: protein assay.
The next assay has as its target Plasminogen (Homo sapiens, UniProt P00747). Nature of the assay: Inhibition of plasmin (unknown origin) using Ac-RM(O2)YRpNA as substrate incubated for 30 mins measured for 7 mins by morrison plot analysis.
The target of another assay is Coagulation factor XI (Homo sapiens, UniProt P03951). The assay can be described thus: Inhibition of factor 11a (unknown origin) using Bz-FVRpNA as substrate incubated for 30 mins measured for 7 mins by morrison plot analysis.
A further assay concerns the target Coagulation factor IX (Homo sapiens, UniProt P00740). Nature of the assay: Inhibition of factor 9a (unknown origin) using Ac-QGRpNA as substrate incubated for 30 mins measured for 7 mins by morrison plot analysis.
Assay [1] has as its target Tissue-type plasminogen activator (Homo sapiens, UniProt P00750). Nature of the assay: Inhibition of tPA (unknown origin) incubated for 30 mins measured for 7 mins by morrison plot analysis.
For a further assay, the target named is Coagulation factor X (Homo sapiens, UniProt P00742). Nature of the assay: Inhibition of factor 10a (unknown origin) using Ac-QRSRpNA as substrate incubated for 30 mins measured for 7 mins by morrison plot analysis.
The target of assay [2] is Urokinase-type plasminogen activator (Homo sapiens, UniProt P00749). Nature of the assay: Inhibition of uPA (unknown origin) incubated for 30 mins measured for 7 mins by morrison plot analysis.
In a further assay the target is Prothrombin (Homo sapiens, UniProt P00734). Nature of the assay: Inhibition of thrombin (unknown origin) using Ac-ATPRpNA as substrate incubated for 30 mins measured for 7 mins by morrison plot analysis.

Plasminogen, sequence (P00747 97-580 limits assumed): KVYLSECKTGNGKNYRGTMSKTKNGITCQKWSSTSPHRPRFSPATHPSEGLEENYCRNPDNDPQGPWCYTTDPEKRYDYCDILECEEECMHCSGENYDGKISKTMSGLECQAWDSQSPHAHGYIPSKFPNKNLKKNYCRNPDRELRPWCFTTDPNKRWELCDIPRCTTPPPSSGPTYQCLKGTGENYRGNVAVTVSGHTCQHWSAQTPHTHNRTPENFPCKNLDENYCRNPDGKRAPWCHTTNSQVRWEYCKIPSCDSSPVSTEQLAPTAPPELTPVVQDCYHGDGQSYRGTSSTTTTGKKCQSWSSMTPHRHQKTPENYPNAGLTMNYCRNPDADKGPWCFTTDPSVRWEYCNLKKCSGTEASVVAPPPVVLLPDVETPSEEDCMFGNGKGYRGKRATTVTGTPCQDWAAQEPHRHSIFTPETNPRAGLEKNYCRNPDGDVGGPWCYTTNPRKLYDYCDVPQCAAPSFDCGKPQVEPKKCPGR
Plasminogen, sequence (P00747 581-810 limits assumed): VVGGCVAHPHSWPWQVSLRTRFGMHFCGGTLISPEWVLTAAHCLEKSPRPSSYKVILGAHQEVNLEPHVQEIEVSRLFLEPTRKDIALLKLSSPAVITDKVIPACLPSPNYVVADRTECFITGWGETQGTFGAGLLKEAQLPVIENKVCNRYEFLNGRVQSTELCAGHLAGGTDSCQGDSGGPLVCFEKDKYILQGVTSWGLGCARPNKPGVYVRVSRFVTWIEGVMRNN
Tissue-type plasminogen activator, sequence (P00750 whole entry): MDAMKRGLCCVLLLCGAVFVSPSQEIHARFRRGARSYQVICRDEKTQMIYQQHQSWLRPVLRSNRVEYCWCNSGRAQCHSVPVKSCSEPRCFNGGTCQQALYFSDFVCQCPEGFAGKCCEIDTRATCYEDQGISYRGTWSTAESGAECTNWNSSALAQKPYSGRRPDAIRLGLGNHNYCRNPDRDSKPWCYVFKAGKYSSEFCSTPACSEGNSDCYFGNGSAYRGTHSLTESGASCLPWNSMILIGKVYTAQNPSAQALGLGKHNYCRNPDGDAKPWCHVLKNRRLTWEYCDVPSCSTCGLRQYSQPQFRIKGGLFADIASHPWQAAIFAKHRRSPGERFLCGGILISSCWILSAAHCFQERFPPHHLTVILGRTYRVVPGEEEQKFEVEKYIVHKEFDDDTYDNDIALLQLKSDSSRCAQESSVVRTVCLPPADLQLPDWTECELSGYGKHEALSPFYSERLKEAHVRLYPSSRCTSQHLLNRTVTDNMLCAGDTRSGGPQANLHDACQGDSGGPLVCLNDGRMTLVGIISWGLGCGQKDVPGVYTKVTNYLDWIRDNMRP
Coagulation factor IX, sequence (P00740 47-191 limits assumed): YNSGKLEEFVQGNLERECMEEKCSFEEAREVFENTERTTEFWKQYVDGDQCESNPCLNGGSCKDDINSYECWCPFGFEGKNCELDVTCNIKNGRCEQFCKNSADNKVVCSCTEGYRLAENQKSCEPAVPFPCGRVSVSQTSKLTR
Coagulation factor IX, sequence (P00740 227-461 limits assumed): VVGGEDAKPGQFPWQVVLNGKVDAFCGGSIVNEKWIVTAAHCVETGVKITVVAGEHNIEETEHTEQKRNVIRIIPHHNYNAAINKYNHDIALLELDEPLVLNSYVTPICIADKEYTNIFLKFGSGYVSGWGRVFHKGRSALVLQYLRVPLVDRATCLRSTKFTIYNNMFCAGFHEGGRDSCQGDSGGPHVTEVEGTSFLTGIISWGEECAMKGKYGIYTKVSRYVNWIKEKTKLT
Coagulation factor XI, sequence (P03951 19-387 limits assumed): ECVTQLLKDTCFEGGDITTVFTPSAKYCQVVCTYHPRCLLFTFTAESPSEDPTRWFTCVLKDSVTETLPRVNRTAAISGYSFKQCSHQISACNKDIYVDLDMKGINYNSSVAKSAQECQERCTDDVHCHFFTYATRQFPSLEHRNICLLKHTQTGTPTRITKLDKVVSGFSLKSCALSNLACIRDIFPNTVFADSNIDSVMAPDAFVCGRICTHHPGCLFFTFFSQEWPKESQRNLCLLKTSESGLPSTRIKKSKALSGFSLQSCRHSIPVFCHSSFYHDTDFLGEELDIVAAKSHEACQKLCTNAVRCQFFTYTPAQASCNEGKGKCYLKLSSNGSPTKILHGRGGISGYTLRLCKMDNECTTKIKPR
Coagulation factor XI, sequence (P03951 388-625 limits assumed): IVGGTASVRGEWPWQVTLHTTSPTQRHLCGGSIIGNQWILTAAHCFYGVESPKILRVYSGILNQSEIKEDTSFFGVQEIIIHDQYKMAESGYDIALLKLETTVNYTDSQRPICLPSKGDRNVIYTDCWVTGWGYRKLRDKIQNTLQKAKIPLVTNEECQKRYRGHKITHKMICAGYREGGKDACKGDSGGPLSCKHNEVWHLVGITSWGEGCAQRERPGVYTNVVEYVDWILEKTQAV
Plasma kallikrein, sequence (P03952 20-390 limits assumed): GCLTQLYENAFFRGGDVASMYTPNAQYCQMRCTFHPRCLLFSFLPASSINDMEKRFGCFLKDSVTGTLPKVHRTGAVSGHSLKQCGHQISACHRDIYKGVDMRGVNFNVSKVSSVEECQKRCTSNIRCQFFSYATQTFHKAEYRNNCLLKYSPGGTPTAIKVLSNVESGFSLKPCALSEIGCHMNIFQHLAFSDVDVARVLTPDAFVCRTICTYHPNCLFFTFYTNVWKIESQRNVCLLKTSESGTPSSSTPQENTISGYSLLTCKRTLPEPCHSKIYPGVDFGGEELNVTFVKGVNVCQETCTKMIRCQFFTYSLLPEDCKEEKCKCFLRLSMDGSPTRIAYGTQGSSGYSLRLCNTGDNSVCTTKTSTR
Plasma kallikrein, sequence (P03952 391-638 limits assumed): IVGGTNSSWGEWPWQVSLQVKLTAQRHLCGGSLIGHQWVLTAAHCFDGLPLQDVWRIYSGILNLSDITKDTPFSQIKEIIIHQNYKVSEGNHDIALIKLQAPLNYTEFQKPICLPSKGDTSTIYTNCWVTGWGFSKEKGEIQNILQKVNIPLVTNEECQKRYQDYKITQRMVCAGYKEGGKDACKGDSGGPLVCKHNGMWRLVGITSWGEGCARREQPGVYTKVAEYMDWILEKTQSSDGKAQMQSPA
Coagulation factor X, sequence (P00742 41-179 limits assumed): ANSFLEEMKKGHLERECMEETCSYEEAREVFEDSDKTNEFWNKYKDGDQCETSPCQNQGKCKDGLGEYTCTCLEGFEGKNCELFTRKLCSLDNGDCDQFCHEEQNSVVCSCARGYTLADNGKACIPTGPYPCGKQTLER
Coagulation factor X, sequence (P00742 235-488 limits assumed): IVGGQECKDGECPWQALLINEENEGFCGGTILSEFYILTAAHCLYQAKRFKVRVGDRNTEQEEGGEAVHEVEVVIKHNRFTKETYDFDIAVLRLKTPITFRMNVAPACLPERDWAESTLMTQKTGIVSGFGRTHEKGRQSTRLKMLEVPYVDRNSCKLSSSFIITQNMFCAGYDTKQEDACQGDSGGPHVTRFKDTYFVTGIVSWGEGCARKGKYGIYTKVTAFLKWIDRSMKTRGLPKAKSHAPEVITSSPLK

One may read the Ki as the equilibrium dissociation constant of an inhibitor or competing ligand from its target. A higher Ki goes with weaker binding. Consider `CC[C@H](C)[C@@H]1NC(=O)[C@@H]2CSSC[C@H](NC(=O)[C@H](CCC(N)=O)NC(=O)CNC(=O)CN)C(=O)N[C@@H](Cc3ccccc3)C(=O)N[C@@H](CCCNC(=N)N)C(=O)N[C@@H]([C@@H](C)CC)C(=O)N[C@@H](CC(C)C)C(=O)N[C@@H](CCCCN)C(=O)N[C@@H](CCCCN)C(=O)N[C@H]3CSSC[C@H](NC1=O)C(=O)N[C@@H](CCCNC(=N)N)C(=O)NCC(=O)N[C@@H](CC(N)=O)C(=O)NCC(=O)N[C@@H](Cc1ccc(O)cc1)C(=O)N[C@H](C(=O)NCC(=O)N[C@@H](CO)C(=O)NCC(=O)N[C@@H](CO)C(=O)N[C@@H](CC(=O)O)C(=O)O)CSSC[C@H](NC(=O)[C@H](CC(=O)O)NC(=O)[C@H](CO)NC(=O)[C@H](CC(=O)O)NC(=O)[C@H](CCCNC(=N)N)NC(=O)[C@H](CCCNC(=N)N)NC3=O)C(=O)N1CCC[C@H]1C(=O)NCC(=O)N[C@@H](C)C(=O)N2`, for which the Ki at Coagulation factor XII was 0.11 µM; on Plasma kallikrein it was greater than 10 µM; at Trypsin, 0.0069 µM; on Plasminogen, 0.27 µM; on Coagulation factor XI, greater than 10 µM; on Coagulation factor IX it was greater than 10 µM. In [1], this compound gave an inhibition constant Ki greater than 10 µM.

Turning to `CC[C@H](C)[C@@H]1NC(=O)[C@@H]2CSSC[C@H](NC(=O)[C@H](CCC(N)=O)NC(=O)CNC(=O)CN)C(=O)N[C@@H](CO)C(=O)N[C@@H](CCCNC(=N)N)C(=O)N[C@@H]([C@@H](C)CC)C(=O)N[C@@H](CC(C)C)C(=O)N[C@@H](CCCCN)C(=O)N[C@@H](CCCCN)C(=O)N[C@H]3CSSC[C@H](NC1=O)C(=O)N[C@@H](CCCNC(=N)N)C(=O)NCC(=O)N[C@@H](CC(N)=O)C(=O)NCC(=O)N[C@@H](Cc1ccc(O)cc1)C(=O)N[C@H](C(=O)NCC(=O)N[C@@H](CO)C(=O)NCC(=O)N[C@@H](CO)C(=O)N[C@@H](CC(=O)O)C(=O)O)CSSC[C@H](NC(=O)[C@H](CC(=O)O)NC(=O)[C@H](CO)NC(=O)[C@H](CC(=O)O)NC(=O)[C@H](CCCNC(=N)N)NC(=O)[C@H](CCCNC(=N)N)NC3=O)C(=O)N1CCC[C@H]1C(=O)NCC(=O)N[C@@H](C)C(=O)N2`, the Ki on Coagulation factor XII is 2.16 µM; on Plasma kallikrein, greater than 10 µM; at Trypsin, greater than 10 µM; on Plasminogen it was greater than 10 µM; at Coagulation factor XI, greater than 10 µM; at Coagulation factor IX, greater than 10 µM. This compound also showed a Ki in assay [1] greater than 10 µM.

Consider `CC[C@H](C)[C@@H]1NC(=O)[C@H](CCCNC(=N)N)NC(=O)[C@H](CO)NC(=O)[C@H](NC(=O)[C@H](CCC(N)=O)NC(=O)CNC(=O)CN)CSSC[C@H]2NC(=O)[C@H](C)NC(=O)CNC(=O)[C@@H]3CCCN3C(=O)[C@@H]3CSSC[C@H](C(=O)NCC(=O)N[C@@H](CO)C(=O)NCC(=O)N[C@@H](CO)C(=O)N[C@@H](CC(=O)O)C(=O)O)NC(=O)[C@H](Cc4ccc(O)cc4)NC(=O)CNC(=O)[C@H](CC(N)=O)NC(=O)CNC(=O)[C@H](CCCNC(=N)N)NC(=O)[C@H](CSSC[C@H](NC(=O)[C@H](CCCCN)NC(=O)[C@H](CCCCN)NC(=O)[C@H](CC(C)C)NC1=O)C(=O)N[C@@H](CCCNC(=N)N)C(=O)N[C@@H](CCCNC(=N)N)C(=O)N[C@@H](CC(=O)O)C(=O)N[C@@H](CO)C(=O)N[C@@H](CC(=O)O)C(=O)N3)NC(=O)[C@H]([C@@H](C)CC)NC2=O`, for which the Ki on Coagulation factor X is 96 µM; in assay [2] it was greater than 10 µM; at Prothrombin it was greater than 10 µM.

Regarding `CC[C@H](C)[C@@H]1NC(=O)[C@@H]2CSSC[C@H](NC(=O)[C@H](CCC(N)=O)NC(=O)CNC(=O)CN)C(=O)N[C@@H](Cc3ccccc3)C(=O)N[C@@H](CCCNC(=N)N)C(=O)N[C@@H]([C@@H](C)CC)C(=O)N[C@@H](Cc3c[nH]c4ccccc34)C(=O)N[C@@H](CCCCN)C(=O)N[C@@H](CCCCN)C(=O)N[C@H]3CSSC[C@H](NC1=O)C(=O)N[C@@H](CCCNC(=N)N)C(=O)NCC(=O)N[C@@H](CC(N)=O)C(=O)NCC(=O)N[C@@H](Cc1ccc(O)cc1)C(=O)N[C@H](C(=O)NCC(=O)N[C@@H](CO)C(=O)NCC(=O)N[C@@H](CO)C(=O)N[C@@H](CC(=O)O)C(=O)O)CSSC[C@H](NC(=O)[C@H](CC(=O)O)NC(=O)[C@H](CO)NC(=O)[C@H](CC(=O)O)NC(=O)[C@H](CCCNC(=N)N)NC(=O)[C@H](CCCNC(=N)N)NC3=O)C(=O)N1CCC[C@H]1C(=O)NCC(=O)N[C@@H](C)C(=O)N2`, the Ki at Coagulation factor XII was 0.51 µM; on Plasma kallikrein, greater than 10 µM; at Trypsin, 2.24 µM; at Plasminogen, 1.5 µM; on Coagulation factor XI, greater than 10 µM; at Coagulation factor IX it was greater than 10 µM. The compound further registered a Ki in assay [1] greater than 10 µM.

As to `CC[C@H](C)[C@@H]1NC(=O)[C@@H]2CSSC[C@H](NC(=O)[C@@H](NC(=O)CNC(=O)CN)C(C)C)C(=O)N3CCC[C@H]3C(=O)N[C@@H](CCCCN)C(=O)N[C@@H]([C@@H](C)CC)C(=O)N[C@@H](CC(C)C)C(=O)N[C@@H](CCCCN)C(=O)N[C@@H](CCCCN)C(=O)N[C@H]3CSSC[C@H](NC1=O)C(=O)N[C@@H](CCCNC(=N)N)C(=O)NCC(=O)N[C@@H](CC(N)=O)C(=O)NCC(=O)N[C@@H](Cc1ccc(O)cc1)C(=O)N[C@H](C(=O)NCC(=O)N[C@@H](CO)C(=O)NCC(=O)N[C@@H](CO)C(=O)N[C@@H](CC(=O)O)C(=O)O)CSSC[C@H](NC(=O)[C@H](CC(=O)O)NC(=O)[C@H](CO)NC(=O)[C@H](CC(=O)O)NC(=O)[C@H](CCCNC(=N)N)NC(=O)[C@H](CCCNC(=N)N)NC3=O)C(=O)N1CCC[C@H]1C(=O)NCC(=O)N[C@@H](C)C(=O)N2`, the Ki is 0.75 µM at Coagulation factor XII; greater than 10 µM at Plasma kallikrein; 0.00016 µM at Trypsin; 0.028 µM on Plasminogen; greater than 10 µM on Coagulation factor XI; greater than 10 µM on Coagulation factor IX. The inhibitory constant (Ki) in assay [1] is greater than 10 µM.

Consider `CC[C@H](C)[C@@H]1NC(=O)[C@@H]2CSSC[C@H](NC(=O)[C@H](CCC(N)=O)NC(=O)CNC(=O)[C@@H](N)CCCCN)C(=O)N[C@@H](Cc3ccccc3)C(=O)N[C@@H](CCCNC(=N)N)C(=O)N[C@@H]([C@@H](C)CC)C(=O)N[C@@H](Cc3c[nH]c4ccccc34)C(=O)N[C@@H](CCCCN)C(=O)N[C@@H](CCCCN)C(=O)N[C@H]3CSSC[C@H](NC1=O)C(=O)N[C@@H](CCCNC(=N)N)C(=O)NCC(=O)N[C@@H](CC(N)=O)C(=O)NCC(=O)N[C@@H](Cc1ccc(O)cc1)C(=O)N[C@H](C(=O)NCC(=O)N[C@@H](CO)C(=O)NCC(=O)N[C@@H](CO)C(=O)N[C@@H](CC(=O)O)C(=O)O)CSSC[C@H](NC(=O)[C@H](CC(=O)O)NC(=O)[C@H](CO)NC(=O)[C@H](CC(=O)O)NC(=O)[C@H](CCCNC(=N)N)NC(=O)[C@H](CCCNC(=N)N)NC3=O)C(=O)N1CCC[C@H]1C(=O)NCC(=O)N[C@@H](C)C(=O)N2`, for which the Ki on Coagulation factor XII is 0.49 µM; at Plasma kallikrein, greater than 50 µM; at Trypsin, 6.24 µM; on Plasminogen it was 4.54 µM; on Coagulation factor XI, greater than 100 µM; at Coagulation factor IX, greater than 50 µM. The same compound returned a Ki in assay [1] greater than 50 µM.
